Results published in patent US20050208031A1, “Inhibition of calcium-independent phospholipases A2beta or A2gamma inhibit hormone-induced differentiation of 3T3-L1 preadipocytes” (priority 2003, published 2005).

Tests used:
[1] = test system: iPLA2; assay: Phospholipase A2 (iPLA2) activity assay in day 8 3T3-L1 cell homogenates with radiolabelled POPC; type: biochemical; conditions: 10 μM BEL, 3 min preincubation, day 8 cell homogenate, FIG. 3B
Method: FIG. 3. Activities of PLA2 in 3T3-L1 cells during differentiation and their inhibition by BELs. 3T3-L1 cells were cultured and induced to differentiation as described in “Test Procedures.” At indicated differentiation stages, cell homogenates were prepared as described in “Test Procedures.” Phospholipase A2 activity was assessed by incubating 3T3-L1 cell protein (100-200 μg) with radiolabelled 1-palmitoyl-2-[1-^14C]-oleoyl-sn-glycerol-3-phosphocholine (POPC) (50 mCi/mmol, 5 μM final concentration, introduced by ethanol injection (2 μL)) in assay buffer (final conditions: 100 mM Tris-HCl, 4 mM EGTA, pH=7.2) at 37° C. for 30 min in a final volume of 200 μL. Reactions were quenched by addition of butanol (100 μL). 30 microliters of the organic phase was spotted on a Whatman silica plate which was developed with a nonpolar acidic mobile phase (100 mL of 70/30/1 petroleum ether/ethyl ether/acetic acid). Spots corresponding to fatty acids were scrapped into scintillation vials and radioactivity was quantified by scintillation spectrometry as described previously. A, iPLA2 activities of 3T3-L1 cells during differentiation. B, iPLA2 activities of homogenates of day 8 3T3-L1 cells after incubation at room temperature for 3 minutes in the absence or presence of 10 μM of (R)-BEL, (S)-BEL or racemic BEL.
On the day of the test, the media of 3T3-L1 cells at different stages of differentiation were removed. The cells were washed briefly with PBS and detached by incubation in trypsin-EDTA (0.25% w/v) at 37° C. for […]. The cells were washed again with 5 volumes of CMRL-1066, transferred to a 50 mL Falcon centrifuge tube and centrifuged for 5 min at 1700 rpm at 4° C. […] Briefly, phospholipase A2 activity was assessed by incubating 3T3-L1 cell protein (100-200 μg) with radiolabelled phosphatidylcholine, L-α-palmitoyl-2-oleoyl [oleoyl-1-^14C] […] Spots corresponding to fatty acids were scrapped into scintillation vials and radioactivity was quantified by scintillation spectrometry as described previously^(32). […]

[2] = biological target: T1, iPLA2γ (Homo sapiens, UniProt Q9NP80); conditions: previously demonstrated; cited from earlier work
T1 sequence (Q9NP80 1-782): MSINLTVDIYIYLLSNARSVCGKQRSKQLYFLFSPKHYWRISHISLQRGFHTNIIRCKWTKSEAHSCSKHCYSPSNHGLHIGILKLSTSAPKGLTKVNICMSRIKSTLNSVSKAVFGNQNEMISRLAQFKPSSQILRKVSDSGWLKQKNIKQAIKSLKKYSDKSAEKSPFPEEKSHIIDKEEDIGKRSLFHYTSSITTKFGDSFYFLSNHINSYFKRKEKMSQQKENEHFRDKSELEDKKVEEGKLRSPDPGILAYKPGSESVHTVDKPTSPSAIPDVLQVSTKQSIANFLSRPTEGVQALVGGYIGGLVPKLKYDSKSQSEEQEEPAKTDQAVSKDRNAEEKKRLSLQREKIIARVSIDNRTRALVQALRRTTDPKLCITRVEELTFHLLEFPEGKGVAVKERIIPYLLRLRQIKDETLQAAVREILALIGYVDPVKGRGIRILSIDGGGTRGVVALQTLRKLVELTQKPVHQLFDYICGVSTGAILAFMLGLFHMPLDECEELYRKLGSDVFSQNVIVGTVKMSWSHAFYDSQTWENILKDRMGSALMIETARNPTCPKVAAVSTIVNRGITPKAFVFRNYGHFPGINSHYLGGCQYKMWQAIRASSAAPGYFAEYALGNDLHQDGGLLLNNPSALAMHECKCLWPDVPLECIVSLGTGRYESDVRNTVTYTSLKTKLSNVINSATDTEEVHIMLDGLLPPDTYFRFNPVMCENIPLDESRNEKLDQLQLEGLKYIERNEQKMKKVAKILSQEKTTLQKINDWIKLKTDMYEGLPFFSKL

[3] = test system: 3T3-L1 cells; assay: TAG accumulation during hormone-induced differentiation of 3T3-L1 cells (ESI/MS); type: cell-based; conditions: 5, 10 μM BEL for 4 days, day 8, ESI/MS, FIG. 6
Method: FIG. 5. Effects of siRNAs directed against iPLA2β or iPLA2γ on TAG accumulation during 3T3-L1 cell differentiation. 3T3-L1 cells were cultured and transfected with 20 nM negative control siRNA, siRNA directed against iPLA2β, or siRNA directed against iPLA2γ prior to induction to differentiation as described in “Test Procedures.” 3T3-L1 cells were grown to day 8 and the cell monolayer was washed with ice-cold PBS and scraped into 1 mL 50 mM LiCl. The lipids were extracted by the method of Bligh-Dyer^(33) in the presence of an internal standard (Tril7:0TAG, 200 nmol/mg protein). Mass spectral analysis of TAG was performed by ESI/MS as described in “Test Procedures.” ESI/MS spectra of TAG of day 8 3T3-L1 cells with pretreatment of negative control siRNA (A), siRNA directed against iPLA2β (B) or siRNA directed against iPLA2γ (C) were shown. The results of TAG quantification (D) represent means ±S.E.M. of at least three independent cultures.
FIG. 6. Effects of BELs on TAG accumulation during hormone-induced differentiation of 3T3-L1 cells. 3T3-L1 cells on two days post confluent were washed three times with DMEM, incubated at 37° C. for 20 min in DMEM with 0, 5, 10 μM racemic, R-, or S-BEL. The cells were induced to differentiate as described in “Test Procedures” in the presence of indicated concentrations of BELs for 4 days. […]

[4] = biological target: T2, iPLA2β (Homo sapiens, UniProt O60733); conditions: previously demonstrated; cited from earlier work
T2 sequence (O60733 1-806): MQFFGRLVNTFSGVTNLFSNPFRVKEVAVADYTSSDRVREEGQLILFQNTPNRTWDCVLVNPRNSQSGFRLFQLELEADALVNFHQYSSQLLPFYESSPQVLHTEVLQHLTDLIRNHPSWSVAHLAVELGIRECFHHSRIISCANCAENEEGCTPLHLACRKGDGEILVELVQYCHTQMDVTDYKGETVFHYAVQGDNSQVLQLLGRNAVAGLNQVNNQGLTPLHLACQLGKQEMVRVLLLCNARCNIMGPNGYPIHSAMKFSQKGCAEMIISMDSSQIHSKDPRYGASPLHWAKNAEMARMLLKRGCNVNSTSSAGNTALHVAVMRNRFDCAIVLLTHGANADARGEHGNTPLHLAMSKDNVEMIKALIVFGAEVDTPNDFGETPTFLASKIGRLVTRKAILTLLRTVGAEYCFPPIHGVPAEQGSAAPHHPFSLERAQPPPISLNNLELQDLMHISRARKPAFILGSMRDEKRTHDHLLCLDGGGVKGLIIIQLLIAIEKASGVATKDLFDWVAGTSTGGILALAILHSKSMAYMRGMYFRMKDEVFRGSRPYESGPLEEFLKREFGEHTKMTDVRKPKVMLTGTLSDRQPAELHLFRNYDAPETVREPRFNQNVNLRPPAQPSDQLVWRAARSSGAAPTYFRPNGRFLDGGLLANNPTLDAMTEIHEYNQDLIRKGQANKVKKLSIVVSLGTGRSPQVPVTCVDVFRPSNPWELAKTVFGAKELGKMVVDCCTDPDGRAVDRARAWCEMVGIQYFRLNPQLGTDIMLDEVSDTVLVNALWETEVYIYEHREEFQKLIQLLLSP

Row | SMILES | inhibition of measured iPLA2 activity in 3T3-L1 adipocyte homogenate [1] | selectivity for iPLA2γ [2] | adipocyte differentiation (TAG accumulation) with BEL [3] | selectivity for iPLA2β in comparison to iPLA2γ [4]
1 | O=C1O/C(=C/Br)CC[C@@H]1c1cccc2ccccc12 [(R)-BEL] | inhibited to similar levels | approximately an order of magnitude | substantially decreased | –
2 | O=C1O/C(=C/Br)CCC1c1cccc2ccccc12 (racemic) [racemic BEL] | inhibited | – | – | –
3 | O=C1O/C(=C/Br)CC[C@H]1c1cccc2ccccc12 [(S)-BEL] | inhibited to similar levels | – | substantially decreased | approximately one order of magnitude
